Tests used:
Slc:ddY mice [1] = test: Mouse novel object recognition test (mORT); assay type: in vivo
Description: Evaluation of cognitive function using mouse novel object recognition test (hereinafter, may be called “mORT”)
In the mORT using Slc:ddY mice (male, Japan SLC, Inc.) with body weight of 25-45 g or 35-40 g, memory deterioration to familiar subject depending on the interval time between the first trial (training) and the second trial (test) is observed. If the second trial is performed 24 hours after performing the first trial, significant forgetting is observed. […] […] (discrimination index as indexes for cognitive function are shown: 0.5% MC receiving group, 0.054±0.026; 3 mg/kg receiving group, 0.245±0.066.)

Tg 2576 mice [2] = test: Aβ reducing action (brain Aβ by ELISA) using Tg 2576 mice; assay type: in vivo, mouse
Description: (§1) Evaluation of Cognitive Function Improving Action and Aβ Reducing Action Using Tg 2576 Mice
(§2) Four-month-old Tg 2576 mice received compounds involved with the present invention mixed in feed for 4 months. After completion of administration, the mORT test was performed to evaluate cognitive function, then the amount of brain Aβ was measured by ELISA. […] Discrimination index as indexes for evaluating cognitive function were as follows (vehicle, 0.064±0.049, 30 mg/kg/day; 0.330±0.062).

Slc:ddY mice [3] = test: Mouse Y-shaped maze test, scopolamine-induced memory impairment; assay type: in vivo; conditions: for spontaneous alternations: Scopolamine HBr 0.6 mg/kg subcutaneous
Description: Evaluation of amelioration in cognitive impairment using mouse Y-shaped maze test (hereinafter, may be called “Y-maze test”)
In the Y-maze test using Slc:ddY mice (male, Japan SLC, Inc.) with body weight of 25-35 g or 27-30 g, when 0.6 mg/kg of Scopolamine HBr (cat. No. S0929, Sigma Aldrich, USA) is subcutaneously administered to mice, memory impairment is caused, and reducing in spontaneous alternation is observed. Accordingly, mice were pre-treated by orally receiving compounds involved with the present invention, and ameliorating action in memory impairment was evaluated. […] (hereinafter, spontaneous alternations in each group in Example 21 are shown: 0.5% MC receiving group, 71.2±3.5; Scopolamine receiving group, 47.5±2.6; 1 mg/kg receiving group, 60.7±2.6; 3 mg/kg receiving group, 64.6±2.2.)

Tg 2576 mice [4] = test: Cognitive function improving action (mORT) using Tg 2576 mice; assay type: in vivo, mouse; conditions: 30 mg/kg/day mixed in feed for 4 months
Description: as §1, §2

[5] = Pharmacokinetic test (PK test) using rodents; assay type: in vivo; conditions: mouse, brain and plasma; mice, 10 mg/kg oral, an hour and 4 hours after; read-out: brain-plasma concentration ratio
Description: Moreover, it was verified, as the results of a pharmacokinetic test (PK test) using rodents, that the compound of the present invention has more excellent in vivo kinetics, central nervous system penetration, and exposure level, compared with the pyrrolidine derivative described in Patent Literature 1. In particular, the following Test Example 8 was performed.
Pharmacokinetic Test (PK Test) Using Rodents
Compounds of the present invention were orally administered to mice at a dose of 10 mg/kg, and an hour and 4 hours after, the plasma and the brain were collected, concentrations of the administered compounds were measured by LC/MS/MS. As well, protein binding rates in the plasma and the brain were measured with equilibrium dialysis method, and concentrations of non-binding compounds were calculated. The brain-plasma concentration ratio was about 5 in any cases of an hour and 4 hours after for compounds obtained in Examples 7, 14, 15, 16, 17, 18, 20, 21, 27, 40, and 50, which indicated excellent central nervous system penetration.

Crlj: WI rats = test: Acetylcholine release enhancing action, hippocampus microdialysis test using rats; assay type: in vivo, rat; conditions: 10 mg/kg (oral), 60 minutes after administration, high potassium stimulation
Description: Examination of Acetylcholine Release Enhancing Action with Microdialysis Test Using Rats
A guide cannula was placed into the hippocampus of Crlj: WI rats, and microdialysis was performed by inserting a probe after the animals were recovered. After administering the compounds involved with the present invention, the hippocampus was stimulated by changing the perfusate into the high potassium solution for 15 minutes. Acetylcholine levels in the perfusate were analyzed with a HPLC-ECD apparatus.

SSTR2 = biological target: T1, SSTR2 (Homo sapiens, UniProt P30874); test: Binding affinity using cell membrane from cells expressing SSTR subtypes
T1 construct: expressed in transfected cells
T1 sequence (P30874 whole entry, species assumed): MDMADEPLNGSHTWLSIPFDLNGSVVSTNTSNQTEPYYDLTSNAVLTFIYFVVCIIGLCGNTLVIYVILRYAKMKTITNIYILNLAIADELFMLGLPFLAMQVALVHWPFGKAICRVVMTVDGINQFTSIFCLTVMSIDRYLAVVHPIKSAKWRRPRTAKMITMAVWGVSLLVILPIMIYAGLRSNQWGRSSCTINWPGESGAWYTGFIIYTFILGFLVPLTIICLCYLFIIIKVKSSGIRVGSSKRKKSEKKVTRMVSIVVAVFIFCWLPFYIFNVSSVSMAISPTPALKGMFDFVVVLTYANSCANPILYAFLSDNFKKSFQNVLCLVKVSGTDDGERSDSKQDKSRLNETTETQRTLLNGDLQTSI

SSTR5 = biological target: T2, SSTR5 (Homo sapiens, UniProt P35346); test: as above
T2 construct: expressed in transfected cells
T2 sequence (P35346 whole entry, species assumed): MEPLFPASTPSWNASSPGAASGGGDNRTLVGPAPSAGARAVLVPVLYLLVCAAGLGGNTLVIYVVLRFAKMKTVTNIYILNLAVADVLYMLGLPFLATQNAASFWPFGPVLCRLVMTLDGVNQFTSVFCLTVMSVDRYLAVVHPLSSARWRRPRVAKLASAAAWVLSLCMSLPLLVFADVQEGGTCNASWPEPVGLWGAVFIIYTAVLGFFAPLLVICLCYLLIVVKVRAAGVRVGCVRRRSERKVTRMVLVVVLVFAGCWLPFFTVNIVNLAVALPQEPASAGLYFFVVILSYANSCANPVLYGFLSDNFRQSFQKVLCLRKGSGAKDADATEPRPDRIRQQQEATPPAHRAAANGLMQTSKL

human SSTR4 = human SSTR4 (Homo sapiens, UniProt P31391); test: Binding affinity using cell membrane from human SSTR4-expressing Chem-1 cells, [125I] Tyr11-Somatostatin 14; parameters: expressed in transfected cells; conditions: 0.1 nmol/L [125I] Tyr11-Somatostatin 14, 2 hours at 25° C.
human SSTR4, sequence (P31391 whole entry): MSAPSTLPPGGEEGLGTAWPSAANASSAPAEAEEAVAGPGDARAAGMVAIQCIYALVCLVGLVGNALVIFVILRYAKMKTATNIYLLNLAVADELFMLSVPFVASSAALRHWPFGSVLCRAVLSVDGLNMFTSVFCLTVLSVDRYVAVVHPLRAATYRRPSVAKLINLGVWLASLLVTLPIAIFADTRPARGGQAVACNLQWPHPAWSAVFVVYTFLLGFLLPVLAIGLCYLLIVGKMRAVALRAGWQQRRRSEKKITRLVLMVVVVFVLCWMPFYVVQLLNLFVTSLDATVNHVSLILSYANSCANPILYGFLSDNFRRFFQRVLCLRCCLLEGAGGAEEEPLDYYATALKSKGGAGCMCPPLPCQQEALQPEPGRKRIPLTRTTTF
Description: Binding affinity evaluation using cell membrane from human SSTR4-expressing cells
From Chem-1 cells forcibly expressing human SSTR4, cell membrane was prepared by using Hepes Buffer. A reaction solution consisting of the prepared cell membrane, 0.1 nmol/L [^125I] Tyr11-Somatostatin 14, and a test compound was prepared, and incubated for 2 hours at 25° C. The cell membrane after incubation was filtered, and washed. After dried, the filter was immersed in a scintillator, its radioactivity was measured with a scintillation counter. By defining the difference in radioactivity between the substance not containing a test compound and the substance containing 1 μmol/L Somatostatin 14 as the specific binding amount, inhibitory rates of test compounds were calculated. Based on IC50 of the test compound calculated from the inhibition curve, the concentration of [^125I] Tyr11-Somatostatin 14, and Kd of Somatostatin 14, Ki of the test compound was calculated.

SSTR1 = biological target: T3, SSTR1 (Homo sapiens, UniProt P30872); test: Binding affinity using cell membrane from cells expressing SSTR subtypes
T3 construct: expressed in transfected cells
T3 sequence (P30872 whole entry, species assumed): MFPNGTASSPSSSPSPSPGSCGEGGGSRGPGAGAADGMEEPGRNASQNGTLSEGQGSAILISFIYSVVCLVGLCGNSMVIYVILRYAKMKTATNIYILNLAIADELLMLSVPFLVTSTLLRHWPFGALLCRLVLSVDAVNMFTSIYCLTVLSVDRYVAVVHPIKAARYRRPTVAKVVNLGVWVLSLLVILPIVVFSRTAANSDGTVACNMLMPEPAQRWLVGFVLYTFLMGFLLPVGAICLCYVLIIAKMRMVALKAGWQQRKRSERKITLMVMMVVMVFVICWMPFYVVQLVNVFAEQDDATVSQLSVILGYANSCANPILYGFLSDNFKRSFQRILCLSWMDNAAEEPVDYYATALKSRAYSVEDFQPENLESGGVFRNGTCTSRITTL

[6] = tested on: SH-SY5Y cells stably expressing human neprilysin/human SSTR4; test: Neprilysin membrane translocation test using human neprilysin/human SSTR4 coexpressing cells; assay type: cell-based
Description: Neprilysin Membrane Translocation Test Using Human Neprilysin/Human SSTR4 Coexpressing Cells
SH-SY5Y cells stably expressing human neprilysin/human SSTR4 were seeded to culture plates, and incubated in a 37° C./5% CO2 incubator overnight. On the next day, the compounds involved with the present invention were added, and cells were incubated in the 37° C./5% CO2 incubator another night. On the next day, 4% paraformaldehyde was added, and cells were fixed. The cells were washed, and blocked with 3% BSA solution. Then, immunostaining with an anti-neprilysin antibody and Alexa Fluor 488 donkey anti-mouse IgG was performed, and analyzed with an IN CELL Analyzer.

SSTR3 = biological target: T4, SSTR3 (Homo sapiens, UniProt P32745); test: Binding affinity using cell membrane from cells expressing SSTR subtypes
T4 construct: expressed in transfected cells
T4 sequence (P32745 whole entry, species assumed): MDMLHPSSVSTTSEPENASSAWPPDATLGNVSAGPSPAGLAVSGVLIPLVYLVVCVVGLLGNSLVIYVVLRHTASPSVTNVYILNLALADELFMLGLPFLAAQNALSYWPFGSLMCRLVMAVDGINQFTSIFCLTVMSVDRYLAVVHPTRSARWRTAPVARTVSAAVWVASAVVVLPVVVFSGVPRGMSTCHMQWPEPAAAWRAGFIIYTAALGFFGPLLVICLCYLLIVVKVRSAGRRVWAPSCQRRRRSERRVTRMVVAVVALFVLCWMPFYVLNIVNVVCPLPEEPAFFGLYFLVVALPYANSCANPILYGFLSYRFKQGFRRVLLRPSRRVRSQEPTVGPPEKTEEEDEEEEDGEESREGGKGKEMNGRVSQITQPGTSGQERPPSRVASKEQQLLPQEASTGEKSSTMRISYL

[7] = 3 mg/kg oral, given after the first trial

Question: What does the source list for `CN1CCC[C@H](C(=O)NC(C)(C)c2cc(Cl)ccc2Cl)C1` [Example 21, (3S)—N-[2-(2,5-dichlorophenyl)propane-2-yl]-1-methylpiperidine-3-carboxamide]?
Answer: memory enhancing action (Slc:ddY mice [1]; 3 mg/kg (oral), administered before the first trial): significant memory enhancing action; discrimination index (Slc:ddY mice [1]; 3 mg/kg oral, administered before the first trial, second trial 24 hours later): 0.214±0.072; discrimination index (Slc:ddY mice [1]; [7]): 0.245±0.066; memory enhancing action (Slc:ddY mice [1]; [7]): significant memory enhancing action; hippocampus Aβ42 reducing action compared with the Vehicle (Tg 2576 mice [2]; 100 mg/kg/day): significant hippocampus Aβ42 reducing action; hippocampus Aβ42 (Tg 2576 mice [2]; 100 mg/kg/day mixed in feed for 4 months): 198.11 ± 26.32 pmol/g; spontaneous alternations (Slc:ddY mice [3]; 1 mg/kg oral): 60.7±2.6; spontaneous alternations (Slc:ddY mice [3]; 3 mg/kg oral): 64.6±2.2; ameliorating action in memory impairment (Slc:ddY mice [3]; at 1 or 3 mg/kg (oral)): significant ameliorating action in memory impairment; cognitive function improving action (Tg 2576 mice [4]): significant cognitive function improving action; discrimination index (Tg 2576 mice [4]): 0.330±0.062; Kp [5]: ~5; acetylcholine level in hippocampus perfusate compared with the Vehicle (Crlj: WI rats): significantly enhanced acetylcholine level; Ki (SSTR2): > 5000 nM; Ki (SSTR5): > 5000 nM; Ki (human SSTR4): 21 nM; Ki (SSTR1): 1570 nM; translocation of neprilysin to cell membrane [6]: concentration-dependently induced the translocation of neprilysin to cell membrane; EC50 ([6]; Homo sapiens, SH-SY5Y, overnight incubation, immunostaining, IN CELL Analyzer): 9.3 nM; Ki (SSTR3): > 3000 nM

Source: patent US20160221948A1, “NITROGEN-CONTAINING SATURATED HETEROCYCLIC COMPOUND” (SUMITOMO CHEMICAL COMPANY, LIMITED, priority 2013, published 2016)
